Test results from patent US20230407243A1, “GENETIC PLATFORM TO INVESTIGATE THE FUNCTIONS OF BACTERIAL DRUG EFFLUX PUMPS” (priority 2022, published 2023).

Columns and labels:
Type in all cases: cell-based, Escherichia coli
EKO-35 araC::mdtEF = experiment: MIC susceptibility profiling, efflux platform; settings: for Fold change of MICs: EKO-35 araC::mdtEF compared to EKO-35; for Minimum Inhibitory Concentration, EKO-35 araC::mdtEF: Table 13A, non-porinated, technical duplicate
Outline: (§1)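 Overnight LB cultures (37 °C, 18 h) were resuspended in PBS pH 7.4 to OD600 ~1.0 and diluted 1/2000 into MHB II. Strains were exposed to 2-fold serial compound dilutions in duplicate for 18 h at 37 °C with shaking. MIC was read from OD600 after subtracting pre-incubation background.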

EKO-35 araC::macAB = experiment: MIC susceptibility profiling, efflux platform; settings: for Fold change of MICs: EKO-35 araC::macAB compared to EKO-35; for Minimum Inhibitory Concentration, EKO-35 araC::macAB: Table 13B, non-porinated, technical duplicate
Outline: as §1

[1] = system: EKO-35 araC::mexCD (MexCD from P. aeruginosa); experiment: MIC susceptibility profiling, efflux platform; settings: for Fold change of MICs: EKO-35 araC::mexCD compared to EKO-35; for Minimum Inhibitory Concentration, EKO-35 araC::mexCD: Table 13B, non-porinated, technical duplicate
Outline: as §1

EKO-35 araC::emrKY = experiment: MIC susceptibility profiling, efflux platform; settings: for Fold change of MICs: EKO-35 araC::emrKY compared to EKO-35; for Minimum Inhibitory Concentration, EKO-35 araC::emrKY: Table 13B, non-porinated, technical duplicate
Outline: as §1

EKO-35 araC::mdtBC = experiment: MIC susceptibility profiling, efflux platform; settings: for Fold change of MICs: EKO-35 araC::mdtBC compared to EKO-35; for Minimum Inhibitory Concentration, EKO-35 araC::mdtBC: Table 13B, non-porinated, technical duplicate
Outline: as §1

EKO-35 araC::acrB = experiment: MIC susceptibility profiling, efflux platform; settings: for Fold change of MICs: EKO-35 araC::acrB compared to EKO-35; for Minimum Inhibitory Concentration, EKO-35 araC::acrB: Table 13A, non-porinated, technical duplicate
Outline: as §1

EKO-35 araC::acrBD408A = experiment: MIC susceptibility profiling, efflux platform; settings: for Fold change of MICs: EKO-35 araC::acrBD408A compared to EKO-35; for Minimum Inhibitory Concentration, EKO-35 araC::acrBD408A: Table 13B, non-porinated, technical duplicate
Outline: as §1

EKO-35 araC::emrAB = experiment: MIC susceptibility profiling, efflux platform; settings: for Fold change of MICs: EKO-35 araC::emrAB compared to EKO-35; for Minimum Inhibitory Concentration, EKO-35 araC::emrAB: Table 13B, non-porinated, technical duplicate
Outline: as §1

EKO-35 araC::acrD = experiment: MIC susceptibility profiling, efflux platform; settings: for Fold change of MICs: EKO-35 araC::acrD compared to EKO-35; for Minimum Inhibitory Concentration, EKO-35 araC::acrD: Table 13A, non-porinated, technical duplicate
Outline: as §1

EKO-35 araC::acrEF = experiment: MIC susceptibility profiling, efflux platform; settings: for Fold change of MICs: EKO-35 araC::acrEF compared to EKO-35; for Minimum Inhibitory Concentration, EKO-35 araC::acrEF: Table 13A, non-porinated, technical duplicate
Outline: as §1

EKO-35-Pore = experiment: MIC susceptibility profiling, porinated strain; settings: for Fold changes of MICs: EKO-35-Pore compared to EKO-35-Pore (reference); for Minimum inhibitory concentration (MIC), Pore EKO-35: Table 10, with pore; for Minimum inhibitory concentration (MIC), Pore EKO-35 / Minimum inhibitory concentration, EKO-35-Pore: technical duplicate; for Minimum inhibitory concentration, EKO-35-Pore: Table 14A, porinated
Outline: (§2)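 E. coli strains carrying a genomically integrated constitutive fhuA ΔC/Δ4L pore were grown 18 h in LB at 37 °C, then diluted 1/2000 in MHB II from OD600 ~1.0. Compounds were tested in duplicate, 2-fold serial titration, for 18 h at 37 °C with shaking. MIC came from OD600 with the pre-incubation background subtracted.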

E. coli ΔtolC = experiment: microbe, parasite or virus in culture; settings: technical duplicate; for Minimum inhibitory concentration (MIC), ΔtolC: Table 10, without pore; for Minimum Inhibitory Concentration, ΔtolC: Table 13A, non-porinated
Outline: as §1

[2] = system: wild-type E. coli K-12 str. BW25113; experiment: microbe, parasite or virus in culture; settings: technical duplicate; for Minimum inhibitory concentration (MIC), K-12: Table 10, without pore; for Minimum Inhibitory Concentration, K-12: Table 13A, non-porinated
Outline: as §1

E. coli EKO-35 = experiment: microbe, parasite or virus in culture; settings: for Fold change of MICs: EKO-35 compared to EKO-35 (reference); for Minimum inhibitory concentration (MIC), EKO-35: Table 10, without pore; for Minimum inhibitory concentration (MIC), EKO-35 / Minimum Inhibitory Concentration, EKO-35: technical duplicate; for Minimum Inhibitory Concentration, EKO-35: Table 13A, non-porinated
Outline: as §1

EKO-35 araC::mdtBC Pore = experiment: MIC susceptibility profiling, porinated efflux platform; settings: for Fold changes of MICs: EKO-35 araC::mdtBC Pore compared to EKO-35-Pore; for Minimum inhibitory concentration: EKO-35 araC::mdtBC Pore, technical duplicate
Outline: as §2

EKO-35 araC::mdtEF Pore = experiment: as above; settings: for Fold changes of MICs: EKO-35 araC::mdtEF Pore compared to EKO-35-Pore; for Minimum inhibitory concentration, EKO-35 araC::mdtEF Pore: Table 14A, porinated, technical duplicate
Outline: as §2

EKO-35 araC::acrB Pore = experiment: as above; settings: for Fold changes of MICs: EKO-35 araC::acr-B Pore compared to EKO-35-Pore; for Minimum inhibitory concentration, EKO-35 araC::acrB Pore: Table 14A, porinated, technical duplicate
Outline: as §2

ΔtolC-Pore = experiment: microbe, parasite or virus in culture; settings: technical duplicate; for Minimum inhibitory concentration (MIC), Pore ΔtolC: Table 10, with pore; for Minimum inhibitory concentration, ΔtolC-Pore: Table 14A, porinated
Outline: as §2

wild-type (WT) K-12-Pore = experiment: microbe, parasite or virus in culture; settings: technical duplicate; for Minimum inhibitory concentration (MIC), Pore K-12: Table 10, with pore; for Minimum inhibitory concentration, K-12 (WT)-Pore: Table 14A, porinated
Outline: as §2

| SMILES | Fold change of MICs (EKO-35 araC::mdtEF) [fold] | Minimum Inhibitory Concentration, EKO-35 araC::mdtEF (EKO-35 araC::mdtEF) [µg/mL] | Fold change of MICs (EKO-35 araC::macAB) [fold] | Minimum Inhibitory Concentration, EKO-35 araC::macAB (EKO-35 araC::macAB) [µg/mL] | Fold change of MICs [1] [fold] | Minimum Inhibitory Concentration, EKO-35 araC::mexCD [1] [µg/mL] | Fold change of MICs (EKO-35 araC::emrKY) [fold] | Minimum Inhibitory Concentration, EKO-35 araC::emrKY (EKO-35 araC::emrKY) [µg/mL] | Fold change of MICs (EKO-35 araC::mdtBC) [fold] | Minimum Inhibitory Concentration, EKO-35 araC::mdtBC (EKO-35 araC::mdtBC) [µg/mL] | Minimum Inhibitory Concentration, EKO-35 araC::acrB (EKO-35 araC::acrB) [µg/mL] | Fold change of MICs (EKO-35 araC::acrBD408A) [fold] | Minimum Inhibitory Concentration, EKO-35 araC::acrBD408A (EKO-35 araC::acrBD408A) [µg/mL] | Fold change of MICs (EKO-35 araC::emrAB) [fold] | Minimum Inhibitory Concentration, EKO-35 araC::emrAB (EKO-35 araC::emrAB) [µg/mL] | Fold change of MICs (EKO-35 araC::acrD) [fold] | Minimum Inhibitory Concentration, EKO-35 araC::acrD (EKO-35 araC::acrD) [µg/mL] | Fold change of MICs (EKO-35 araC::acrEF) [fold] | Minimum Inhibitory Concentration, EKO-35 araC::acrEF (EKO-35 araC::acrEF) [µg/mL] | Fold changes of MICs (EKO-35-Pore) [fold] | other results |
| --- | --- | --- | --- | --- | --- | --- | --- | --- | --- | --- | --- | --- | --- | --- | --- | --- | --- | --- | --- | --- | --- |
| O=C(Nc1ccccc1)Nc1ccc(Br)c(C(F)(F)F)c1 [compound 6] | 1 | 320 | 1 | 320 | 1 | 320 | 1 | 320 | 1 | 320 | 320 | 1 | 320 | 1 | 320 | 1 | 320 | 1 | 320 | 1 | Fold change of MICs (EKO-35 araC::acrB): 1 fold; Minimum inhibitory concentration (MIC), Pore EKO-35 (EKO-35-Pore): 320 µg/mL; Minimum inhibitory concentration, EKO-35-Pore (EKO-35-Pore): 320 µg/mL; Minimum inhibitory concentration (MIC), ΔtolC (E. coli ΔtolC): 0.625 µg/mL; Minimum Inhibitory Concentration, ΔtolC (E. coli ΔtolC): 0.625 µg/mL; Minimum inhibitory concentration (MIC), K-12 [2]: 320 µg/mL; Minimum Inhibitory Concentration, K-12 [2]: 320 µg/mL; Fold change of MICs (E. coli EKO-35): 1 fold; Minimum inhibitory concentration (MIC), EKO-35 (E. coli EKO-35): 320 µg/mL; Minimum Inhibitory Concentration, EKO-35 (E. coli EKO-35): 320 µg/mL; Fold changes of MICs (EKO-35 araC::mdtBC Pore): 1 fold; Minimum inhibitory concentration (EKO-35 araC::mdtBC Pore): 320 µg/mL; Fold changes of MICs (EKO-35 araC::mdtEF Pore): 1 fold; Minimum inhibitory concentration, EKO-35 araC::mdtEF Pore (EKO-35 araC::mdtEF Pore): 320 µg/mL; Fold changes of MICs (EKO-35 araC::acrB Pore): 1 fold; Minimum inhibitory concentration, EKO-35 araC::acrB Pore (EKO-35 araC::acrB Pore): 320 µg/mL; Minimum inhibitory concentration (MIC), Pore ΔtolC (ΔtolC-Pore): 0.625 µg/mL; Minimum inhibitory concentration, ΔtolC-Pore (ΔtolC-Pore): 0.625 µg/mL; Minimum inhibitory concentration (MIC), Pore K-12 (wild-type (WT) K-12-Pore): 320 µg/mL; Minimum inhibitory concentration, K-12 (WT)-Pore (wild-type (WT) K-12-Pore): 320 µg/mL |
| O=C(Nc1ccc(C(F)(F)F)cc1)Nc1ccc(C(F)(F)F)cc1 [compound 7] | 1 | 320 | 1 | 320 | 1 | 320 | 1 | 320 | 1 | 320 | 320 | 1 | 320 | 1 | 320 | 1 | 320 | 1 | 320 | 1 | Fold change of MICs (EKO-35 araC::acrB): 1 fold; Minimum inhibitory concentration (MIC), Pore EKO-35 (EKO-35-Pore): 320 µg/mL; Minimum inhibitory concentration, EKO-35-Pore (EKO-35-Pore): 320 µg/mL; Minimum inhibitory concentration (MIC), ΔtolC (E. coli ΔtolC): 0.313 µg/mL; Minimum Inhibitory Concentration, ΔtolC (E. coli ΔtolC): 0.313 µg/mL; Minimum inhibitory concentration (MIC), K-12 [2]: 320 µg/mL; Minimum Inhibitory Concentration, K-12 [2]: 320 µg/mL; Fold change of MICs (E. coli EKO-35): 1 fold; Minimum inhibitory concentration (MIC), EKO-35 (E. coli EKO-35): 320 µg/mL; Minimum Inhibitory Concentration, EKO-35 (E. coli EKO-35): 320 µg/mL; Fold changes of MICs (EKO-35 araC::mdtBC Pore): 1 fold; Minimum inhibitory concentration (EKO-35 araC::mdtBC Pore): 320 µg/mL; Fold changes of MICs (EKO-35 araC::mdtEF Pore): 1 fold; Minimum inhibitory concentration, EKO-35 araC::mdtEF Pore (EKO-35 araC::mdtEF Pore): 320 µg/mL; Fold changes of MICs (EKO-35 araC::acrB Pore): 1 fold; Minimum inhibitory concentration, EKO-35 araC::acrB Pore (EKO-35 araC::acrB Pore): 320 µg/mL; Minimum inhibitory concentration (MIC), Pore ΔtolC (ΔtolC-Pore): 0.313 µg/mL; Minimum inhibitory concentration, ΔtolC-Pore (ΔtolC-Pore): 0.313 µg/mL; Minimum inhibitory concentration (MIC), Pore K-12 (wild-type (WT) K-12-Pore): 320 µg/mL; Minimum inhibitory concentration, K-12 (WT)-Pore (wild-type (WT) K-12-Pore): 320 µg/mL |
| N#CC(C#N)=NNc1ccc(-n2ccc(C(F)(F)F)n2)cc1 [compound 8] | 1 | 320 | 1 | 320 | 1 | 320 | 1 | 320 | 1 | 320 | 640 | 1 | 320 | 1 | 320 | 1 | 160 | 1 | 320 | 1 | Minimum inhibitory concentration (MIC), Pore EKO-35 (EKO-35-Pore): 80 µg/mL; Minimum inhibitory concentration, EKO-35-Pore (EKO-35-Pore): 80 µg/mL; Minimum inhibitory concentration (MIC), ΔtolC (E. coli ΔtolC): 1.25 µg/mL; Minimum Inhibitory Concentration, ΔtolC (E. coli ΔtolC): 1.25 µg/mL; Minimum inhibitory concentration (MIC), K-12 [2]: 640 µg/mL; Minimum Inhibitory Concentration, K-12 [2]: 640 µg/mL; Fold change of MICs (E. coli EKO-35): 1 fold; Minimum inhibitory concentration (MIC), EKO-35 (E. coli EKO-35): 320 µg/mL; Minimum Inhibitory Concentration, EKO-35 (E. coli EKO-35): 320 µg/mL; Fold changes of MICs (EKO-35 araC::mdtBC Pore): 1 fold; Minimum inhibitory concentration (EKO-35 araC::mdtBC Pore): 80 µg/mL; Fold changes of MICs (EKO-35 araC::mdtEF Pore): 1 fold; Minimum inhibitory concentration, EKO-35 araC::mdtEF Pore (EKO-35 araC::mdtEF Pore): 80 µg/mL; Fold changes of MICs (EKO-35 araC::acrB Pore): 2 fold; Minimum inhibitory concentration, EKO-35 araC::acrB Pore (EKO-35 araC::acrB Pore): 160 µg/mL; Minimum inhibitory concentration (MIC), Pore ΔtolC (ΔtolC-Pore): 1.25 µg/mL; Minimum inhibitory concentration, ΔtolC-Pore (ΔtolC-Pore): 1.25 µg/mL; Minimum inhibitory concentration (MIC), Pore K-12 (wild-type (WT) K-12-Pore): 160 µg/mL; Minimum inhibitory concentration, K-12 (WT)-Pore (wild-type (WT) K-12-Pore): 160 µg/mL |
